Measurements from US20240174603A1 (Rappta Therapeutics Oy, priority 2021, published 2024).

What follows are compounds tested on LNCaP cells (assay: LNCaP cell viability assay (MTS)). Settings: Homo sapiens, LNCaP, 48 h, LNCaP cell line.
Type: cell-based
How it was run: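 LNCaP cells (5000/well) treated 24 h after plating with compound at 1–80 µM for 48 h. Relative cell number read by MTS; GI50 from four-parameter variable-slope log(inhibitor) fit with bottom constrained to zero.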
Compound `CN1CCN(CC(NS(=O)(=O)c2ccc(Oc3ccc(C(F)(F)F)cc3)cc2)c2ccc(Cl)c(Cl)c2)CC1` (centres unmarked) [Compound 233, N-(1-(3,4-dichlorophenyl)-2-(4-methylpiperazin-1-yl)ethyl)-4-(4-(trifluoromethyl)phenoxy)benzenesulfonamide] has a GI50 of 6.19 µM. Work on `CN1CCN(CC(NS(=O)(=O)c2ccc(Oc3ccccc3)cc2)c2ccc(Cl)cc2)CC1` (centres unmarked) [Compound 234, N-(1-(4-chlorophenyl)-2-(4-methylpiperazin-1-yl)ethyl)-4-phenoxybenzenesulfonamide] yielded a GI50 of 12.1 µM. Compound `CN1CCN(CC(NS(=O)(=O)c2ccc(Oc3ccc(C(F)(F)F)cc3)cc2)c2ccc(Cl)cc2)CC1` (centres unmarked) [Compound 235, N-(1-(4-chlorophenyl)-2-(4-methylpiperazin-1-yl)ethyl)-4-(4-(trifluoromethyl)phenoxy)benzenesulfonamide] has a GI50 of 11.3 µM. With `CN1CCN(CC(NS(=O)(=O)c2ccc(Oc3ccccc3)cc2)c2ccc(Cl)c(Cl)c2)CC1` (centres unmarked) [Compound 236, N-(1-(3,4-dichlorophenyl)-2-(4-methylpiperazin-1-yl)ethyl)-4-phenoxybenzenesulfonamide] the GI50 was 12.3 µM. With `O=S(=O)(NC(CN1CCNCC1)c1ccc(Cl)c(Cl)c1)c1ccc(OC(F)(F)F)cc1` (centres unmarked) [Compound 237, N-(1-(3,4-dichlorophenyl)-2-(piperazin-1-yl)ethyl)-4-(trifluoromethoxy)benzenesulfonamide] the GI50 was 6.84 µM. Work on `CN(C)CC(NS(=O)(=O)c1ccc(Oc2ccccc2C(F)(F)F)cc1)c1ccc(Cl)c(Cl)c1` (centres unmarked) [Compound 238, N-(1-(3,4-dichlorophenyl)-2-(dimethylamino)ethyl)-4-(2-(trifluoromethyl)phenoxy)benzenesulfonamide] yielded a GI50 of 21.9 µM. Compound `CN(C)CC(NS(=O)(=O)c1ccc(C2CCCCO2)cc1)c1ccc(Cl)c(Cl)c1` (centres unmarked) [Compound 239, N-(1-(3,4-dichlorophenyl)-2-(dimethylamino)ethyl)-4-(tetrahydro-2H-pyran-2-yl)benzenesulfonamide] has a GI50 of 28.2 µM. For `CN(C)CC(NS(=O)(=O)c1ccc(OC(F)(F)F)c(C#N)c1)c1ccc(Cl)c(Cl)c1` (centres unmarked) [Compound 240, 3-cyano-N-(1-(3,4-dichlorophenyl)-2-(dimethylamino)ethyl)-4-(trifluoromethoxy)benzenesulfonamide], the GI50 was 24.6 µM. For `CCCOC1CCN(CC(NS(=O)(=O)c2ccc(OC(F)(F)F)cc2)c2ccc(Cl)c(Cl)c2)CC1` (centres unmarked) [Compound 241, N-(1-(3,4-dichlorophenyl)-2-(4-propoxypiperidin-1-yl)ethyl)-4-(trifluoromethoxy)benzenesulfonamide], the GI50 was 31.9 µM. Compound `CNCC(NS(=O)(=O)c1ccc(OC(F)(F)F)cc1)c1ccc(Cl)c(Cl)c1` (centres unmarked) [Compound 242, N-(1-(3,4-dichlorophenyl)-2-(methylamino)ethyl)-4-(trifluoromethoxy)benzenesulfonamide] has a GI50 of 24.1 µM. `O=S(=O)(NCC1(c2ccc(Cl)c(Cl)c2)CCCC1)c1ccc(OC(F)(F)F)cc1` [Compound 243, N-((1-(3,4-dichlorophenyl)cyclopentyl)methyl)-4-(trifluoromethoxy)benzenesulfonamide] showed a GI50 of 51.7 µM. `O=S(=O)(NCC1(c2ccc(Cl)cc2)CCCC1)c1ccc(OC(F)(F)F)cc1` [Compound 244, N-((1-(4-chlorophenyl)cyclopentyl)methyl)-4-(trifluoromethoxy)benzenesulfonamide] showed a GI50 of 56.1 µM. `CC(C)(NS(=O)(=O)c1ccc(OC(F)(F)F)cc1)C1(c2ccc(Cl)c(Cl)c2)CC1` [Compound 245, N-(2-(1-(3,4-dichlorophenyl)cyclopropyl)propan-2-yl)-4-(trifluoromethoxy)benzenesulfonamide] showed a GI50 of 45.2 µM. With `CN(C)C[C@@H](Cc1ccc(Cl)c(Cl)c1)NS(=O)(=O)c1ccc(OC(F)(F)F)cc1` [Compound 246, (R)—N-(1-(3,4-dichlorophenyl)-3-(dimethylamino)propan-2-yl)-4-(trifluoromethoxy)benzenesulfonamide] the GI50 was 23.8 µM. In the case of `CN(C)C[C@H](Cc1ccc(Cl)c(Cl)c1)NS(=O)(=O)c1ccc(OC(F)(F)F)cc1` [Compound 247, (S)—N-(1-(3,4-dichlorophenyl)-3-(dimethylamino)propan-2-yl)-4-(trifluoromethoxy)benzenesulfonamide], the GI50 is reported as 22.8 µM. `CN(C)CC(NS(=O)(=O)c1ccc(OC2CCC2)cc1)c1ccc(Cl)c(Cl)c1` (centres unmarked) [Compound 248, 4-cyclobutoxy-N-(1-(3,4-dichlorophenyl)-2-(dimethylamino)ethyl)benzenesulfonamide] gave a GI50 of 16.4 µM. `CN(C)C(=O)[C@H](Cc1ccc(Cl)c(Cl)c1)NS(=O)(=O)c1ccc(OC(F)(F)F)cc1` [Compound 249, (S)-3-(3,4-dichlorophenyl)-N,N-dimethyl-2-((4-(trifluoromethoxy)phenyl)sulfonamido)propenamide] was tested, and the GI50 was 65.3 µM. In the case of `CN(C)CC(c1ccc(Cl)c(Cl)c1)N(C)S(=O)(=O)c1ccc(OC(F)(F)F)cc1` (centres unmarked) [Compound 250, N-(1-(3,4-dichlorophenyl)-2-(dimethylamino)ethyl)-N-methyl-4-(trifluoromethoxy)benzenesulfonamide], the GI50 is reported as 39.6 µM. Work on `CN(C)CC(NS(=O)(=O)c1ccc(NC2CCCC2)cc1)c1ccc(Cl)c(Cl)c1` (centres unmarked) [Compound 251, 4-(cyclopentylamino)-N-(1-(3,4-dichlorophenyl)-2-(dimethylamino)ethyl)benzenesulfonamide] yielded a GI50 of 22.4 µM. `CN(C)CC(NS(=O)(=O)c1ccc(NC2CCC2)cc1)c1ccc(Cl)c(Cl)c1` (centres unmarked) [Compound 252, 4-(cyclobutylamino)-N-(1-(3,4-dichlorophenyl)-2-(dimethylamino)ethyl)benzenesulfonamide] was tested, and the GI50 was 22.8 µM. In the case of `O=S(=O)(NCC1(c2ccc(Cl)c(Cl)c2)CCNC1)c1ccc(OC(F)(F)F)cc1` (centres unmarked) [Compound 253, N-((3-(3,4-dichlorophenyl)pyrrolidin-3-yl)methyl)-4-(trifluoromethoxy)benzenesulfonamide], the GI50 is reported as 10.7 µM. `CC(CN(C)C)NS(=O)(=O)c1ccc(OC(F)(F)F)c([N+](=O)[O-])c1` (centres unmarked) [Compound 254, N-(1-(dimethylamino)propan-2-yl)-3-nitro-4-(trifluoromethoxy)benzenesulfonamide] gave a GI50 of 1.92 µM. `CN(C)C(=O)C(NS(=O)(=O)c1ccc(OC(F)(F)F)cc1)c1ccc(Cl)c(Cl)c1` (centres unmarked) [Compound 255, 2-(3,4-dichlorophenyl)-N,N-dimethyl-2-((4-(trifluoromethoxy)phenyl)sulfonamido)acetamide] gave a GI50 of 38.5 µM. Work on `COc1ccc(CNCC(NS(=O)(=O)c2ccc(OC(F)(F)F)cc2)c2ccc(Cl)c(Cl)c2)cc1` (centres unmarked) [Compound 256, N-(1-(3,4-dichlorophenyl)-2-((4-methoxybenzyl)amino)ethyl)-4-(trifluoromethoxy)benzenesulfonamide] yielded a GI50 of 34 µM. In the case of `O=S(=O)(NC(CN1CCNCC1)c1ccc(Cl)cc1)c1ccc(OC(F)(F)F)cc1` (centres unmarked) [Compound 257, N-(1-(4-chlorophenyl)-2-(piperazin-1-yl)ethyl)-4-(trifluoromethoxy)benzenesulfonamide], the GI50 is reported as 11.6 µM. In the case of `O=S(=O)(NC(CN1CCNCC1)c1ccc(Cl)c(F)c1)c1ccc(OC(F)(F)F)cc1` (centres unmarked) [Compound 258, N-(1-(4-chloro-3-fluorophenyl)-2-(piperazin-1-yl)ethyl)-4-(trifluoromethoxy)benzenesulfonamide], the GI50 is reported as 11.3 µM. Compound `O=S(=O)(NC(CN1CCNCC1)c1ccc(Cl)cc1)c1ccc(OC(F)(F)F)nc1` (centres unmarked) [Compound 259, N-(1-(4-chlorophenyl)-2-(piperazin-1-yl)ethyl)-6-(trifluoromethoxy)pyridine-3-sulfonamide] has a GI50 of 48.8 µM. In the case of `O=S(=O)(NCC1(c2ccccc2)CCNCC1)c1ccc(OC(F)(F)F)cc1` [Compound 260, N-((4-phenylpiperidin-4-yl)methyl)-4-(trifluoromethoxy)benzenesulfonamide], the GI50 is reported as 33.6 µM. `O=S(=O)(NCC1(c2cccc(C(F)(F)F)c2)CCCC1)c1ccc(OC(F)(F)F)cc1` [Compound 262, 4-(trifluoromethoxy)-N-((1-(3-(trifluoromethyl)phenyl)cyclopentyl)methyl)benzenesulfonamide] gave a GI50 of 63.1 µM. `O=S(=O)(NC(CN1CCNCC1)c1ccc(F)cc1)c1ccc(OC(F)(F)F)cc1` (centres unmarked) [Compound 264, N-(1-(4-fluorophenyl)-2-(piperazin-1-yl)ethyl)-4-(trifluoromethoxy)benzenesulfonamide] was tested, and the GI50 was 43.1 µM. `O=S(=O)(NC[C@H](c1ccc(F)cc1)N1CCNCC1)c1ccc(OC(F)(F)F)cc1` [Compound 265, (S)—N-(2-(4-fluorophenyl)-2-(piperazin-1-yl)ethyl)-4-(trifluoromethoxy)benzenesulfonamide] was tested, and the GI50 was 40.3 µM. With `CN(C)CC(NS(=O)(=O)c1ccc(C(F)(F)F)c([N+](=O)[O-])c1)c1ccc(Cl)c(Cl)c1` (centres unmarked) [Compound 266, N-(1-(3,4-dichlorophenyl)-2-(dimethylamino)ethyl)-3-nitro-4-(trifluoromethyl)benzenesulfonamide] the GI50 was 41.9 µM. Compound `CCCOc1ccc(S(=O)(=O)NC(CN(C)C)c2ccc(Cl)c(Cl)c2)cc1` (centres unmarked) [Compound 267, N-(1-(3,4-dichlorophenyl)-2-(dimethylamino)ethyl)-4-propoxybenzenesulfonamide] has a GI50 of 23.8 µM. `CN(C)CC(NS(=O)(=O)c1ccc(NC2CCCCC2)cc1)c1ccc(Cl)c(Cl)c1` (centres unmarked) [Compound 268, 4-(cyclohexylamino)-N-(1-(3,4-dichlorophenyl)-2-(dimethylamino)ethyl)benzenesulfonamide] was tested, and the GI50 was 15.5 µM. `CN1CCN(CC(NS(=O)(=O)c2ccc(Oc3ccc(F)cc3)cc2)c2ccc(Cl)c(Cl)c2)CC1` (centres unmarked) [Compound 269, N-(1-(3,4-dichlorophenyl)-2-(4-methylpiperazin-1-yl)ethyl)-4-(4-fluorophenoxy)benzenesulfonamide] was tested, and the GI50 was 15 µM.
